Here are results for 24 molecules from US8664236B2, “1H-pyrrolo[2,3 b]-pyridine derivatives” (Merck Patent GmbH, priority 2010, dated 2014).

Read-outs that look alike come from different tables or passages of the source.

For one assay, the target named is PDK1 (His6-PDK1(Δ1-50)) (Homo sapiens (Human), UniProt O15530). In words: Test for the inhibition of PDK1 (enzymatic, flashplate, 33P-ATP). The class given is biochemical. As for the experimental part:
4. Test for the Inhibition of PDK1
The experimental batches are carried out in a flashplate system with 384 wells/microtitration plate.
The test substances are employed in corresponding concentrations (if desired in a dilution series). The control is carried out without test substance. The reaction is stopped using standard methods and washed. The activity of the kinase is measured via the incorporated radioactivity in top count. In order to determine the non-specific kinase reaction (blank value), the experimental batches are carried out in the presence of 100 nM staurosporine.
The radioactivity (decompositions per minute) of the blank value (no use of test substance in the presence of staurosporine) is subtracted from all other radioactivity values. The controls (kinase activity without test substance) are set equal to 100 percent and all other radioactivity values (after subtracting the blank value) are expressed set in relation thereto (for example in % of the control).

Assay [1] addresses PDK1 kinase in PC3 cells (PKB phosphorylation at Thr 308) (Homo sapiens (Human), UniProt O15530). In words: Cellular testing of PDK1 kinase inhibitors in PC3 cells (Luminex, phospho-T308-PKB). The format is cell-based. As for the experimental part:
Method for the Cellular Testing of PDK1 Kinase Inhibitors in PC3 Cells
The cellular assay for the determination of the PDK1 kinase activity is carried out as a Luminex assay in the 96-well format. PC3 cells are sown at 20,000 cells per well in 100 μl of medium (45% of […]/45% of Ham's F12/10% of FCS) and incubated on the following day for 30 min with a serial dilution of the test substance (7 concentrations) under serum-free conditions. The cells are subsequently lysed using 90 μl of lysis buffer (20 mM tris/HCl pH 8.0, 150 mM NaCl, 1% of NP40, 10% of glycerol, 1% of phosphatase inhibitor I, 1% of phosphatase inhibitor II, 0.1% of protease inhibitor cocktail III, 0.01% of benzonase) per well, and the lysates are separated off from insoluble cell constituents by means of centrifugation through a 96-well filter plate (0.65 μm). The lysates are incubated overnight at 4° C. with shaking with Luminex beads to which an anti-total PKB antibody is coupled. The detection is carried out on the following day by addition of a phospho-T308-PKB antibody and a species-specific […] secondary antibody. The detection of phospho-T308-PKB is carried out by measurement in a Luminex100 instrument by determination of 100 events per cavity in a measurement time of 60 sec. […] The values of the batches treated with test substance are calculated therefrom as percentage of control, and IC50 values are determined by means of RS1.

Where [2] appears, read: enzymatic PDK1 inhibition assay, read-out: enzymatic IC50.
Where [3] appears, read: PKB phosphorylation at Thr 308 in PC3 cells, read-out: cellular IC50.
The mark [4] stands for this setting: Table I comparison, read-out: PDK1 inhibition assay enzymatic IC50.

Chain of PDK1 (His6-PDK1(Δ1-50)) (O15530 51-556): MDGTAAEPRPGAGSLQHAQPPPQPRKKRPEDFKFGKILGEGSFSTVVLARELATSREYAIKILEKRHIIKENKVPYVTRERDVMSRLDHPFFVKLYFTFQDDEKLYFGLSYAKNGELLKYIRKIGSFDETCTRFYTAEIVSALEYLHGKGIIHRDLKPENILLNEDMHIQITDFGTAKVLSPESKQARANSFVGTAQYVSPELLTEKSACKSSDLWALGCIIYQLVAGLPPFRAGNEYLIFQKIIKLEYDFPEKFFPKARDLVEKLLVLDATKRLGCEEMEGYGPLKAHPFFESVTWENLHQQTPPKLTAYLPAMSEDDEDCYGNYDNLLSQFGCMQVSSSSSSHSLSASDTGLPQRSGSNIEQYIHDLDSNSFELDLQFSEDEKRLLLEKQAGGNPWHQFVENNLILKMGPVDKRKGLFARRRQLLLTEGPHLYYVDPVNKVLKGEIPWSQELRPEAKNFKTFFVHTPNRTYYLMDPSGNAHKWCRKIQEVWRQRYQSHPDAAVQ
Chain of PDK1 kinase in PC3 cells (PKB phosphorylation at Thr 308) (O15530 whole entry): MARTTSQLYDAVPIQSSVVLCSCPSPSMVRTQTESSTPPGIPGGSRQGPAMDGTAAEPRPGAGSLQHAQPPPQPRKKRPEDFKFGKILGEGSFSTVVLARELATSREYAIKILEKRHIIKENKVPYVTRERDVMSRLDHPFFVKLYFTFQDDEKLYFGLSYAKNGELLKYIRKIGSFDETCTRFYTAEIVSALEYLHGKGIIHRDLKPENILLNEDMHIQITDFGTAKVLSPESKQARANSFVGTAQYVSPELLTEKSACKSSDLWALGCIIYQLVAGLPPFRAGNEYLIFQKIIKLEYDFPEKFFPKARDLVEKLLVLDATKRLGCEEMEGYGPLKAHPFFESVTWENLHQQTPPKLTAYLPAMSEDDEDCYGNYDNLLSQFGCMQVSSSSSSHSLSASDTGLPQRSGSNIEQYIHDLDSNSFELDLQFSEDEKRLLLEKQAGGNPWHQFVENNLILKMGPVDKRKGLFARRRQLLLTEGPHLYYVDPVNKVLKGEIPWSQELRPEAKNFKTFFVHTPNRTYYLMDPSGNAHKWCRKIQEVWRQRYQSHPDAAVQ

Turning to `CC(C)n1cc(-c2cnc3[nH]cc(-c4cc(N(C)c5ccccc5Cl)nc(N)n4)c3c2)cn1` [A19, N4-(2-Chlorophenyl)-6-[5-(1-isopropyl-1H-pyrazol-4-yl)-1H-pyrrolo[2,3-b]pyridin-3-yl]-N4-methylpyrimidine-2,4-diamine], the IC50 (usually the concentration that gives 50% inhibition) at PDK1 (His6-PDK1(Δ1-50)) (setting [2]) stood at 0.03 µM; in assay [1] (setting [3]), 400 nM.
As to `CC(=O)NCCCN(c1ccccc1)c1cc(-c2c[nH]c3ncc(-c4cnn(C)c4)cc23)nc(N)n1` [A43, N-[3-({2-Amino-6-[5-(1-methyl-1H-pyrazol-4-yl)-1H-pyrrolo-[2,3-b]pyridin-3-yl]pyrimidin-4-yl}phenylamino)propyl]acetamide], the IC50 at PDK1 (His6-PDK1(Δ1-50)) (setting [4]) was determined as 0.022 µM; on PDK1 (His6-PDK1(Δ1-50)) (setting [2]) it was 0.022 µM; in assay [1] (setting [3]) it was 430 nM; in assay [1] (Table I comparison, values in nM, read-out: PDK1 inhibition assay cellular IC50) it was 430 nM.
With `COCCN(c1cc(-c2c[nH]c3ncc(-c4cnn(C)c4)cc23)nc(N)n1)c1ccccc1Cl` [A29, N4-(2-Chlorophenyl)-N4-(2-methoxyethyl)-6-[5-(1-methyl-1H-pyrazol-4-yl)-1H-pyrrolo[2,3-b]pyridin-3-yl]pyrimidine-2,4-diamine], the IC50 at PDK1 (His6-PDK1(Δ1-50)) (setting [2]) turned out to be 0.007 µM; in assay [1] (setting [3]), 25.5 nM.
In the case of `Cn1cc(-c2cnc3[nH]cc(-c4cc(C5(c6ccccc6F)CC5)nc(N)n4)c3c2)cn1` [A42, 4-[1-(2-Fluorophenyl)cyclopropyl]-6-[5-(1-methyl-1H-pyrazol-4-yl)-1H-pyrrolo[2,3-b]pyridin-3-yl]pyrimidin-2-ylamine], the IC50 was found to be 0.0455 µM on PDK1 (His6-PDK1(Δ1-50)) (setting [2]) and 20 nM in assay [1] (setting [3]).
For `CC(C)n1cc(-c2cnc3[nH]cc(-c4cc(N(CCO)c5ccccc5Cl)nc(N)n4)c3c2)cn1` [A15, 2-[{2-Amino-6-[5-(1-isopropyl-1H-pyrazol-4-yl)-1H-pyrrolo[2,3-b]pyridin-3-yl]pyrimidin-4-yl)-(2-chlorophenyl)amino]-ethanol], the IC50 in assay [1] (setting [3]) is 2100 nM.
Take `Cn1cc(-c2cnc3[nH]cc(-c4cc(C(C)(C)c5ccccc5)nc(N)n4)c3c2)cn1` [A2, 4-(1-Methyl-1-phenylethyl)-6-[5-(1-methyl-1H-pyrazol-4-yl)-1H-pyrrolo[2,3-b]pyridin-3-yl]pyrimidin-2-ylamine]: the IC50 was 0.065 µM on PDK1 (His6-PDK1(Δ1-50)) (setting [2]) and 140 nM in assay [1] (setting [3]).
On to `CC(C)Cn1cc(-c2cnc3[nH]cc(-c4cc(CCCN)nc(N)n4)c3c2)cn1` [reference compound], for which the IC50 on PDK1 (His6-PDK1(Δ1-50)) (setting [4]) is 0.011 µM; in assay [1] (Table I comparison, values given in μM, read-out: PDK1 inhibition assay cellular IC50) it was above 30000 nM.
With `Cn1cc(-c2cnc3[nH]cc(-c4cc(N(CCN5CCOCC5)c5cccc(F)c5)nc(N)n4)c3c2)cn1` [A28, N4-(3-Fluorophenyl)-6-[5-(1-methyl-1H-pyrazol-4-yl)-1H-pyrrolo[2,3-b]pyridin-3-yl]-N4-(2-morpholin-4-ylethyl)pyrimidine-2,4-diamine], the IC50 on PDK1 (His6-PDK1(Δ1-50)) (setting [2]) came to 0.089 µM; in assay [1] (setting [3]), 9700 nM.
For `CN(c1cccc(F)c1)c1cc(-c2c[nH]c3ncc(-c4cnn(C)c4)cc23)nc(N)n1` [A1, N4-(3-Fluorophenyl)-N4-methyl-6-[5-(1-methyl-1H-pyrazol-4-yl)-1H-pyrrolo[2,3-b]pyridin-3-yl]pyrimidine-2,4-diamine], the half-inhibitory concentration (IC50) amounted to 0.034 µM on PDK1 (His6-PDK1(Δ1-50)) (setting [2]) and 280 nM in assay [1] (setting [3]).
In the case of `CN(c1cccc(Cl)c1)c1cc(-c2c[nH]c3ncc(-c4cnn(C)c4)cc23)nc(N)n1` [A8, N4-(3-Chlorophenyl)-N4-methyl-6-[5-(1-methyl-1H-pyrazol-4-yl)-1H-pyrrolo[2,3-b]pyridin-3-yl]pyrimidine-2,4-diamine], the IC50 came out at 0.051 µM at PDK1 (His6-PDK1(Δ1-50)) (setting [2]) and 200 nM in assay [1] (setting [3]).
With `Cn1cc(-c2cnc3[nH]cc(-c4cc(N(CCO)c5ccccc5F)nc(N)n4)c3c2)cn1` [A26, 2-[{2-Amino-6-[5-(1-methyl-1H-pyrazol-4-yl)-1H-pyrrolo[2,3-b]-pyridin-3-yl]pyrimidin-4-yl)-(2-fluorophenyl)amino]ethanol], the IC50 on PDK1 (His6-PDK1(Δ1-50)) (setting [2]) came out at 0.005 µM; in assay [1] (setting [3]), 23 nM.
Take `Cn1cc(-c2cnc3[nH]cc(-c4cc(C5(c6ccc(Cl)cc6)CCCC5)nc(N)n4)c3c2)cn1` [A7, 4-[1-(4-Chlorophenyl)cyclopentyl]-6-[5-(1-methyl-1H-pyrazol-4-yl)-1H-pyrrolo[2,3-b]pyridin-3-yl]pyrimidin-2-ylamine]: the IC50 on PDK1 (His6-PDK1(Δ1-50)) (setting [2]) came out at 0.87 µM; in assay [1] (setting [3]) it was 1400 nM.
With `COC(=O)CN(c1ccc(Cl)cc1)c1cc(-c2c[nH]c3ncc(-c4cnn(C)c4)cc23)nc(N)n1` [A24, Methyl [{2-amino-6-[5-(1-methyl-1H-pyrazol-4-yl)-1H-pyrrolo-[2,3-b]pyridin-3-yl]pyrimidin-4-yl)-(4-chlorophenyl)amino]acetate], the figures for the IC50 (on PDK1 (His6-PDK1(Δ1-50)) (setting [2]); in assay [1] (setting [3])) were 0.069 µM and 470 nM, respectively.
The matching figures for `CCN(c1ccc(Cl)cc1)c1cc(-c2c[nH]c3ncc(-c4cnn(C)c4)cc23)nc(N)n1` [A13, N4-(4-Chlorophenyl)-N4-ethyl-6-[5-(1-methyl-1H-pyrazol-4-yl)-1H-pyrrolo[2,3-b]pyridin-3-yl]pyrimidine-2,4-diamine]: 0.046 µM and 120 nM.
Take `Cn1cc(-c2cnc3[nH]cc(-c4cc(N(CC(O)CO)c5cccc(C#N)c5)nc(N)n4)c3c2)cn1` (centres unmarked) [A22, 3-[{2-Amino-6-[5-(1-methyl-1H-pyrazol-4-yl)-1H-pyrrolo[2,3-b]-pyridin-3-yl]pyrimidin-4-yl}-(2,3-dihydroxypropyl)amino]-benzonitrile]: the IC50 at PDK1 (His6-PDK1(Δ1-50)) (setting [2]) is 0.09 µM; in assay [1] (setting [3]), above 10000 nM.
For `CN(c1cc(-c2c[nH]c3ncc(-c4cnn(C)c4)cc23)nc(N)n1)c1ccccc1Cl` [A10, N4-(2-Chlorophenyl)-N4-methyl-6-[5-(1-methyl-1H-pyrazol-4-yl)-1H-pyrrolo[2,3-b]pyridin-3-yl]pyrimidine-2,4-diamine] the same measures were 0.0076 µM and 26 nM.
The matching figures for `CCN(Cc1ccccc1)c1cc(-c2c[nH]c3ncc(-c4cnn(C)c4)cc23)nc(N)n1` [A14, N4-Benzyl-N4-ethyl-6-[5-(1-methyl-1H-pyrazol-4-yl)-1H-pyrrolo[2,3-b]pyridin-3-yl]pyrimidine-2,4-diamine]: 0.051 µM and 530 nM.
The molecule `Cn1cc(-c2cnc3[nH]cc(-c4cc(N(CCC#N)c5ccccc5Cl)nc(N)n4)c3c2)cn1` [A30, 3-[{2-amino-6-[5-(1-methyl-1H-pyrazol-4-yl)-1H-pyrrolo[2,3-b]-pyridin-3-yl]pyrimidin-4-yl}-(2-chlorophenyl)amino]propionitrile] displayed a 50% inhibitory concentration (IC50) against PDK1 (His6-PDK1(Δ1-50)) of 0.0091 µM.
As for `CCN(c1cc(-c2c[nH]c3ncc(-c4cnn(C)c4)cc23)nc(N)n1)c1nncs1` [A20, N4-Ethyl-6-[5-(1-methyl-1H-pyrazol-4-yl)-1H-pyrrolo[2,3-b]pyridin-3-yl]-N4-1,3,4-thiadiazol-2-ylpyrimidine-2,4-diamine], the IC50 at PDK1 (His6-PDK1(Δ1-50)) (setting [2]) is 0.155 µM; in assay [1] (setting [3]) it was above 10000 nM.
For the molecule `Cn1cc(-c2cnc3[nH]cc(-c4cc(N5CCc6cc(F)ccc65)nc(N)n4)c3c2)cn1` [A17, 4-(5-Fluoro-2,3-dihydroindol-1-yl)-6-[5-(1-methyl-1H-pyrazol-4-yl)-1H-pyrrolo[2,3-b]pyridin-3-yl]pyrimidin-2-ylamine], the figures for the IC50 (on PDK1 (His6-PDK1(Δ1-50)) (setting [2]); in assay [1] (setting [3])) were 0.2 µM and above 10000 nM, respectively.
For the molecule `CC(C)n1cc(-c2cnc3[nH]cc(-c4cc(N5CCc6cc(F)ccc65)nc(N)n4)c3c2)cn1` [A18, 4-(5-Fluoro-2,3-dihydroindol-1-yl)-6-[5-(1-isopropyl-1H-pyrazol-4-yl)-1H-pyrrolo[2,3-b]pyridin-3-yl]pyrimidin-2-ylamine], the figures for the IC50 (at PDK1 (His6-PDK1(Δ1-50)) (setting [2]); in assay [1] (setting [3])) were 5.9 µM and above 10000 nM, respectively.
On to `CCN(c1ccccc1)c1cc(-c2c[nH]c3ncc(-c4cnn(C)c4)cc23)nc(N)n1` [A12, N4-Ethyl-6-[5-(1-methyl-1H-pyrazol-4-yl)-1H-pyrrolo[2,3-b]-pyridin-3-yl]-N4-phenylpyrimidine-2,4-diamine], for which the values for the IC50 (at PDK1 (His6-PDK1(Δ1-50)) (setting [2]); in assay [1] (setting [3])) were 0.012 µM and 690 nM, respectively.
The matching figures for `CN(c1ccccc1)c1cc(-c2c[nH]c3ncc(-c4cnn(C)c4)cc23)nc(N)n1` [A11, N4-Methyl-6-[5-(1-methyl-1H-pyrazol-4-yl)-1H-pyrrolo[2,3-b]-pyridin-3-yl]-N4-phenylpyrimidine-2,4-diamine]: 0.0165 µM and 800 nM.
`CN(c1cccc(F)c1)c1cc(-c2c[nH]c3ncc(-c4cnn(C)c4)cc23)ncn1` [A30a]: the IC50 in assay [1] (setting [3]) was 660 nM.
